Results from PubChem BioAssay AID2060488 (Molecular Pharmacology Branch, DTP, NCI, 2025).

Test system: 966289-007-R4-J1-PDC complex spheroid viability
Test: Anticancer human tumor 966289-007-R4-J1-PDC patient-derived pancreatic adenocarcinoma cell line growth inhibition [GQUAD]
Conditions: for IC50: curve of first compound; for viability, T/C: stronger effect = lower value
Procedure, shortened: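 Tumor cells were grown as complex spheroids with HUVEC endothelial cells and mesenchymal stem cells as stroma. G-quadruplex stabilizers were combined with targeted agents over half-log dilutions from near the clinical Cmax, or from 10 microM.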

[1] = second compound 0.0316 µM, first compound 0.0316 µM
[2] = second compound 0.0316 µM, first compound 0.1 µM
[3] = second compound 0.0316 µM, first compound 0.316 µM
[4] = second compound 0.0316 µM, first compound 1 µM
[5] = second compound 0.0316 µM, first compound 3.16 µM
[6] = second compound 0.0316 µM, first compound 10 µM
[7] = second compound 0.1 µM, first compound 0.0316 µM
[8] = second compound 0.1 µM, first compound 0.1 µM
[9] = second compound 0.1 µM, first compound 0.316 µM
[10] = second compound 0.1 µM, first compound 1 µM
[11] = second compound 0.1 µM, first compound 3.16 µM
[12] = second compound 0.1 µM, first compound 10 µM
[13] = second compound 0.316 µM, first compound 0.0316 µM
[14] = second compound 0.316 µM, first compound 0.1 µM
[15] = second compound 0.316 µM, first compound 0.316 µM
[16] = second compound 0.316 µM, first compound 1 µM
[17] = second compound 0.316 µM, first compound 3.16 µM
[18] = second compound 0.316 µM, first compound 10 µM
[19] = second compound 1 µM, first compound 0.0316 µM
[20] = second compound 1 µM, first compound 0.1 µM
[21] = second compound 1 µM, first compound 0.316 µM
[22] = second compound 1 µM, first compound 1 µM
[23] = second compound 1 µM, first compound 3.16 µM
[24] = second compound 1 µM, first compound 10 µM
[25] = second compound 3.16 µM, first compound 0.0316 µM
[26] = second compound 3.16 µM, first compound 0.1 µM
[27] = second compound 3.16 µM, first compound 0.316 µM
[28] = second compound 3.16 µM, first compound 1 µM
[29] = second compound 3.16 µM, first compound 3.16 µM
[30] = second compound 3.16 µM, first compound 10 µM
[31] = second compound 10 µM, first compound 0.0316 µM
[32] = second compound 10 µM, first compound 0.1 µM
[33] = second compound 10 µM, first compound 0.316 µM
[34] = second compound 10 µM, first compound 1 µM
[35] = second compound 10 µM, first compound 3.16 µM
[36] = second compound 10 µM, first compound 10 µM
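Further: spheroids exposed to the agents for seven days before readout.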
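Wherever viability, T/C is given: percent viability relative to DMSO vehicle control wells taken as 100%.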

CC(C)n1c(=O)n(C)c2cnc3cc(F)c(-c4ccc(OCCCN5CCCCC5)nc4)cc3c21 + Cc1[nH]c2ccc(F)cc2c1-c1nc2c3cccnc3c3ncccc3c2[nH]1
IC50 (second compound 0.0316 µM): > 10000 nM
IC50 (second compound 0.1 µM): > 10000 nM
IC50 (second compound 0.316 µM): > 10000 nM
IC50 (second compound 1 µM): > 10000 nM
IC50 (second compound 3.16 µM): > 10000 nM
IC50 (second compound 10 µM): > 10000 nM
viability, T/C [1]: 112%
viability, T/C [2]: 101%
viability, T/C [3]: 110%
viability, T/C [4]: 101%
viability, T/C [5]: 109%
viability, T/C [6]: 82.4%
viability, T/C [7]: 104%
viability, T/C [8]: 101%
viability, T/C [9]: 109%
viability, T/C [10]: 105%
viability, T/C [11]: 110%
viability, T/C [12]: 89.1%
viability, T/C [13]: 99.8%
viability, T/C [14]: 110%
viability, T/C [15]: 106%
viability, T/C [16]: 111%
viability, T/C [17]: 105%
viability, T/C [18]: 85.9%
viability, T/C [19]: 104%
viability, T/C [20]: 108%
viability, T/C [21]: 109%
viability, T/C [22]: 109%
viability, T/C [23]: 109%
viability, T/C [24]: 85.5%
viability, T/C [25]: 102%
viability, T/C [26]: 107%
viability, T/C [27]: 110%
viability, T/C [28]: 104%
viability, T/C [29]: 105%
viability, T/C [30]: 62.2%
viability, T/C [31]: 103%
viability, T/C [32]: 104%
viability, T/C [33]: 107%
viability, T/C [34]: 104%
viability, T/C [35]: 94.9%
viability, T/C [36]: 61.8%

CC1COCCN1c1cc(C2(O)CC3CCC(C2)O3)c2cnn(-c3ccn[nH]3)c2n1 (centres undefined) + Cc1[nH]c2ccc(F)cc2c1-c1nc2c3cccnc3c3ncccc3c2[nH]1
IC50 (second compound 0.0316 µM): 117 nM
IC50 (second compound 0.1 µM): 112 nM
IC50 (second compound 0.316 µM): 134 nM
IC50 (second compound 1 µM): 131 nM
IC50 (second compound 3.16 µM): 60.9 nM
IC50 (second compound 10 µM): 50.6 nM
viability, T/C [1]: 112%
viability, T/C [2]: 55.6%
viability, T/C [3]: 13.9%
viability, T/C [4]: 5.11%
viability, T/C [5]: 4.75%
viability, T/C [6]: 3.95%
viability, T/C [7]: 111%
viability, T/C [8]: 53.8%
viability, T/C [9]: 14%
viability, T/C [10]: 5.55%
viability, T/C [11]: 4.82%
viability, T/C [12]: 4.44%
viability, T/C [13]: 105%
viability, T/C [14]: 63.2%
viability, T/C [15]: 11.7%
viability, T/C [16]: 5.9%
viability, T/C [17]: 4.9%
viability, T/C [18]: 4.84%
viability, T/C [19]: 98.5%
viability, T/C [20]: 61.1%
viability, T/C [21]: 14.2%
viability, T/C [22]: 5.99%
viability, T/C [23]: 4.35%
viability, T/C [24]: 4.34%
viability, T/C [25]: 81.8%
viability, T/C [26]: 25.1%
viability, T/C [27]: 11.7%
viability, T/C [28]: 5.99%
viability, T/C [29]: 6%
viability, T/C [30]: 4.42%
viability, T/C [31]: 71.7%
viability, T/C [32]: 18.7%
viability, T/C [33]: 6.61%
viability, T/C [34]: 5.67%
viability, T/C [35]: 4.73%
viability, T/C [36]: 4.11%
